Patent publication US11505528B2, “Inhibitors of microbially induced amyloid” (Axial Therapeutics, Inc., priority 2017, dated 2022)
Like-named read-outs stand apart in the source and are kept apart here.

Target: T1, E. coli CsgA (Escherichia coli, UniProt P28307)
T1 construct: 6xHis (C); made in house; host or cells: E. coli NEB 3016 slyD::kan
Experiment: Thioflavin T cell-free assay of CsgA aggregation
Type: biochemical

[1] = read-out: Inhibition of Aggregation, CsgA
[2] = read-out: Inhibition of Aggregation, CsgA (compound activity range)

T1 sequence (P28307 23-151): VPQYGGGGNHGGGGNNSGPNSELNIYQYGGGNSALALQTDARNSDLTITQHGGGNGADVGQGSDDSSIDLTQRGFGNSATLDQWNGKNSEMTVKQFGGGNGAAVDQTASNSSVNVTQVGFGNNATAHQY

SMILES	inhibition at 20 µM [1] [%]	inhibition at 20 µM [2] [%]
COc1cc2[nH]cc(C(=O)Nc3ccccc3)c(=O)c2c(OC)c1OC [Compound 30, 5,6,7-trimethoxy-4-oxo-N-phenyl-1,4-dihydroquinoline-3-carboxamide]	-56	< -10
COc1cc(C(=O)Nc2sc3c(c2C(=O)N(C)c2cc(OC)c(OC)c(OC)c2)CCCC3)cc(OC)c1OC [Compound 7, N-methyl-2-(3,4,5-trimethoxybenzamido)-N-(3,4,5-trimethoxyphenyl)-4,5,6,7-tetrahydrobenzo[b]thiophene-3-carboxamide]	2	-10 to 10
COc1cc(OC)c2c(=O)c(C(=O)N(C)c3cc(OC)c(OC)c(OC)c3)c[nH]c2c1 [Compound 35, 5,7-dimethoxy-N-methyl-4-oxo-N-(3,4,5-trimethoxyphenyl)-1,4-dihydroquinoline-3-carboxamide]	-53	< -10
O=C(Nc1sc2c(c1C(=O)Nc1cc(O)c(O)c(O)c1)CCCC2)c1ccccc1 [Compound 18, 2-benzamido-N-(3,4,5-trihydroxyphenyl)-4,5,6,7-tetrahydrobenzo[b]thiophene-3-carboxamide]	16	10 to 30
Nc1sc2c(c1C(=O)Nc1cc(O)c(O)c(O)c1)CCCC2 [Compound 16, 2-amino-N-(3,4,5-trihydroxyphenyl)-4,5,6,7-tetrahydrobenzo[b]thiophene-3-carboxamide]	31	30 to 60
COc1cc(NC(=O)c2c(N(C)C(=O)c3cc(OC)c(OC)c(OC)c3)sc3c2CCCC3)cc(OC)c1OC [Compound 13, 2-(3,4,5-trimethoxy-N-methylbenzamido)-N-(3,4,5-trimethoxyphenyl)-4,5,6,7-tetrahydrobenzo[b]thiophene-3-carboxamide]	-16	< -10
COc1cc(OC)c2c(=O)c(C(=O)Nc3ccc(O)c(F)c3)c[nH]c2c1 [Compound 37, N-(3-fluoro-4-hydroxyphenyl)-5,7-dimethoxy-4-oxo-1,4-dihydroquinoline-3-carboxamide]	-17	< -10
COc1cc(C(=O)Nc2sc3c(c2C(N)=O)CCCC3)cc(OC)c1OC [Compound 12, 2-(3,4,5-trimethoxybenzamido)-4,5,6,7-tetrahydrobenzo[b]thiophene-3-carboxamide]	-23	< -10
O=C(Nc1cc(O)cc(O)c1)c1c[nH]c2cc(O)cc(O)c2c1=O [Compound 47, N-(3,5-dihydroxyphenyl)-5,7-dihydroxy-4-oxo-1,4-dihydroquinoline-3-carboxamide]	13	10 to 30
O=C(Nc1sc2c(c1C(=O)Nc1cc(O)c(O)c(O)c1)CCCC2)c1cc(O)cc(O)c1 [Compound 4, 2-(3,5-dihydroxybenzamido)-N-(3,4,5-trihydroxyphenyl)-4,5,6,7-tetrahydrobenzo[b]thiophene-3-carboxamide]	43	30 to 60
COc1cc(NC(=O)c2c(NC(=O)c3cc(OC)c(OC)c(OC)c3)sc3c2CCCC3)cc(OC)c1OC [Compound 1, 2-(3,4,5-trimethoxybenzamido)-N-(3,4,5-trimethoxyphenyl)-4,5,6,7-tetrahydrobenzo[b]thiophene-3-carboxamide]	8	-10 to 10
COc1cc(C(=O)Nc2sc3c(c2C(=O)Nc2ccccc2)CCCC3)cc(OC)c1OC [Compound 9, N-phenyl-2-(3,4,5-trimethoxybenzamido)-4,5,6,7-tetrahydrobenzo[b]thiophene-3-carboxamide]	-33	< -10
COc1cc(NC(=O)c2c(NC(=O)c3ccccc3)sc3c2CCCC3)cc(OC)c1OC [Compound 11, 2-benzamido-N-(3,4,5-trimethoxyphenyl)-4,5,6,7-tetrahydrobenzo[b]thiophene-3-carboxamide]	-24	< -10
COc1cc(OC)cc(C(=O)Nc2sc3c(c2C(=O)Nc2cc(OC)c(OC)c(OC)c2)CCCC3)c1 [Compound 3, 2-(3,5-dimethoxybenzamido)-N-(3,4,5-trimethoxyphenyl)-4,5,6,7-tetrahydrobenzo[b]thiophene-3-carboxamide]	-11	< -10
COc1cc2[nH]cc(C(=O)Nc3ccc(O)c(F)c3)c(=O)c2c(OC)c1OC [Compound 34, N-(3-fluoro-4-hydroxyphenyl)-5,6,7-trimethoxy-4-oxo-1,4-dihydroquinoline-3-carboxamide]	-11	< -10
COc1cc(-c2[nH]c3cc(OC)c(OC)c(OC)c3c(=O)c2C(=O)O)cc(OC)c1OC [Compound 36, 5,6,7-trimethoxy-4-oxo-2-(3,4,5-trimethoxyphenyl)-1,4-dihydroquinoline-3-carboxylic acid]	-47	< -10
O=C(Nc1cc(O)c(O)c(O)c1)c1c[nH]c2cc(O)cc(O)c2c1=O [Compound 22, 5,7-dihydroxy-4-oxo-N-(3,4,5-trihydroxyphenyl)-1,4-dihydroquinoline-3-carboxamide]	58	30 to 60
NC(=O)c1c(NC(=O)c2cc(O)c(O)c(O)c2)sc2c1CCCC2 [Compound 15, 2-(3,4,5-trihydroxybenzamido)-4,5,6,7-tetrahydrobenzo[b]thiophene-3-carboxamide]	52	30 to 60
O=C(Nc1cccc(O)c1)c1c[nH]c2ccccc2c1=O [Compound 46, N-(3-hydroxyphenyl)-4-oxo-1,4-dihydroquinoline-3-carboxamide]	-7	-10 to 10
O=C(Nc1ccccc1)c1c[nH]c2ccccc2c1=O [Compound 45, 4-oxo-N-phenyl-1,4-dihydroquinoline-3-carboxamide]	-18	< -10
COc1cc(OC)c2c(=O)c(C(=O)Nc3ccc(O)cc3)c[nH]c2c1 [Compound 31, N-(4-hydroxyphenyl)-5,7-dimethoxy-4-oxo-1,4-dihydroquinoline-3-carboxamide]	-20	< -10
COc1cc(C(=O)Nc2sc3c(c2C(=O)O)CCCC3)cc(OC)c1OC [Compound 17, 2-(3,4,5-trimethoxybenzamido)-4,5,6,7-tetrahydrobenzo[b]thiophene-3-carboxylic acid]	18	10 to 30
COc1cc2[nH]cc(C(=O)Nc3ccc(O)cc3)c(=O)c2c(OC)c1OC [Compound 29, N-(4-hydroxyphenyl)-5,6,7-trimethoxy-4-oxo-1,4-dihydroquinoline-3-carboxamide]	9	-10 to 10
COc1cc2[nH]cc(C(=O)Nc3ccccc3O)c(=O)c2c(OC)c1OC [Compound 39, N-(2-hydroxyphenyl)-5,6,7-trimethoxy-4-oxo-1,4-dihydroquinoline-3-carboxamide]	-4	-10 to 10
